Experimental data: patent US12497403B2, “Factor XIa inhibitors” (Merck Sharp & Dohme LLC, priority 2021, dated 2025)

Assays:
[1] = target: T1, Human plasma kallikrein (Homo sapiens, UniProt P03952); experiment: Kallikrein assay (plasma kallikrein); format: biochemical; conditions: purified Human plasma kallikrein 0.5 nM, Acetyl-K-P-R-AFC substrate, pH 7.4; read-out: pKal IC50
T1 construct: yields a heavy chain (371 amino acids) and a light chain (248 amino acids); purchased Enzyme Research Laboratories
Method: (§1) The effectiveness of a compound of the present invention as an inhibitor of Kallikrein can be determined using a relevant purified serine protease, and an appropriate synthetic substrate. The rate of hydrolysis of the chromogenic or fluorogenic substrate by the relevant serine protease was measured both in the absence and presence of compounds of the present invention. Assays were conducted at room temperature or at 37° C. […] A decrease in the rate of fluorescence change in the presence of inhibitor is indicative of enzyme inhibition. Such methods are known to one skilled in the art. The results of this assay are expressed as the half-maximal inhibitory concentrations (IC50), or the inhibitory constant. Ki.
Kallikrein determinations were made in 50 mM HEPES buffer at pH 7.4 containing 150 mM NaCl, 5 mM CaCl2, and 0.1% PEG 8000 (polyethylene glycol; Fisher Scientific). Determinations were made using purified Human plasma kallikrein at a final concentration of 0.5 nM (Enzyme Research Laboratories) and the synthetic substrate. Acetyl-K-P-R-AFC (Sigma # C6608) at a concentration of […].
Activity assays were performed by diluting a stock solution of substrate at least tenfold to a final concentration≤ 0.2 Km into a solution containing enzyme or enzyme equilibrated with inhibitor. Times required to achieve equilibration between enzyme and inhibitor were determined in control experiments. The reactions were performed under linear progress curve conditions and fluorescence increase measured at 405 Ex/510 Em nm. Values were converted to percent inhibition of the control reaction (after subtracting 100% Inhibition value). IC50 was determined by inflection point from a four parameter logistic curve fit. Ki was calculated using the Cheng Prusoff equation. Ki=IC50/(1+([S]/Km)).

[2] = Dog pharmacokinetics (screening IV/PO or cassette IV); format: in vivo; conditions: male; dog plasma, mean residence time
Method: Plasma pharmacokinetic parameters for clearance, volume of distribution, half-life, mean residence time (MRT) and oral bioavailability were determined in dogs from oral administration and IV administration studies. 4 male dogs, typically weighing 8-12 kilograms, were fasted overnight prior to dosing. Compounds were prepared for oral and IV dosing by addition to a vehicle, depending on the dose used. For a typical preparation, 1 mg per mL (IV) or 1.5 mg per mL (oral) of test compound was added to vehicle comprised of 20% dimethyl sulfoxide (DMSO), 60% polyethylene glycol 400 (PEG400) and 20% water. IV formulation was administered to 2 dogs via the saphenous or cephalic vein, and oral dosing was administered to 2 dogs via oral gavage. Blood was collected by the cephalic or jugular vein, typically at predose, 2 min, 8 min, 15 min, 30 min, and 1, 2, 4, 6, 8 and 24 hr postdose for IV, and at predose, 15 min, 30 min, and 1, 2, 4, 6, 8, and 24 hr for oral dosing. Samples were collected in K2EDTA tubes, stored on ice. and centrifuged. Plasma was transferred to a micro titer plate and stored at −70° C.until analysis. Plasma samples were extracted using protein precipitation and analyzed by liquid chromatography separation followed by mass spec detection (LCMS/MS), using a standard curve for each compound. Plasma pharmacokinetic parameters were calculated for IV and oral dosing data by non-compartmental methods. Oral bioavailability was determined as the ratio of the dose-normalized plasma area under the curve (AUC) following oral dosing vs. IV dosing.
Plasma pharmacokinetic parameters for clearance, volume of distribution, half-life, and mean residence time (MRT) were determined in dogs from IV cassette administration studies. 2 male dogs, typically weighing 8-12 kilograms, were fasted overnight prior to dosing. Compounds were prepared for IV dosing by addition to a vehicle, depending on the dose used. For a typical preparation, 1 mg per mL (IV) of up to 5 test compounds were added to vehicle comprised of 20% dimethyl sulfoxide (DMSO), 60% polyethylene glycol 400 (PEG400) and 20% water. IV formulation was administered to 2 dogs via the saphenous or cephalic vein. Blood was collected by the cephalic or jugular vein, typically at predose. 2, 8, 15, 30 min, 1, 2, 4, 6, 8 and 24 hr postdose. Samples were collected in K2EDTA tubes, stored on ice, and centrifuged. Plasma was transferred to a micro titer plate and stored at −70° C. until analysis. Plasma samples were extracted using protein precipitation and analyzed by liquid chromatography separation followed by mass spec detection (LCMS/MS), using a standard curve for each compound. Plasma pharmacokinetic parameters were calculated by non-compartmental methods.

[3] = target: human Factor XIa (Homo sapiens, UniProt P03951); experiment: Factor XIa assay; format: biochemical; conditions: human Factor XIa 0.04 nM, GPR-AFC substrate, 25° C., pH 7.4; read-out: FXIa IC50
Method: as §1, with “Coagulation Factor XIa” for “Kallikrein”, “constant,” for “constant.”
Compounds were pre-incubated for 30 minutes at 25° C. with human (0.04 nM) Factor XIa in 50 mM HEPES buffer with 150 mM sodium chloride, 5 mM calcium chloride, 0.1% PEG 8000, pH 7.4. Factor XIa enzymatic activity was determined by addition of the substrate glycine-proline-arginine-7-amido-4-trifluoromethylcoumarin (GPR-AFC) and measurement of the fluorescence at 400/505 nm after a 60 minute incubation at 25° C. The % inhibition for each data point was calculated from the data and analyzed using the log (inhibitor) vs. response four parameters equation to determine the half-maximal inhibitory concentrations (IC50). The IC50 were converted to equilibrium inhibitory constants (Ki) using the Cheng-Prusoff equation.

Chain of human Factor XIa (P03951 388-625 limits assumed): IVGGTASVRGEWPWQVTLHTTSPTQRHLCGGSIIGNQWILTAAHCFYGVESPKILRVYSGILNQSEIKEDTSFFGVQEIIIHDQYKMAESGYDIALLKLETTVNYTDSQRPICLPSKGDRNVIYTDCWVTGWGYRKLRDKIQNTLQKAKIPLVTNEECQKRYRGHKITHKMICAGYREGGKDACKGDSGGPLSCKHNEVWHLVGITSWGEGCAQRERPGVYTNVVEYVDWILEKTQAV
Chain of human Factor XIa (P03951 19-387 partner limits assumed): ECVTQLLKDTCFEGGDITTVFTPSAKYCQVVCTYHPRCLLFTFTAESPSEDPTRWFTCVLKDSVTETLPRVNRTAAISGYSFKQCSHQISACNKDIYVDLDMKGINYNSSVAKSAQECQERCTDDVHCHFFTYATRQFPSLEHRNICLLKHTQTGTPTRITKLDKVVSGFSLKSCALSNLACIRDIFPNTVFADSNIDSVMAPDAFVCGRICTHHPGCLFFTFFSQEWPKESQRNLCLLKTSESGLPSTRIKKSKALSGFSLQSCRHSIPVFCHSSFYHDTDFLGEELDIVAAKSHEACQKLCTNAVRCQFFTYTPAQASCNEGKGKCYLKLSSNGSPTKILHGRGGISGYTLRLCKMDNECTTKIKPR
T1 sequence (P03952 391-638 limits assumed): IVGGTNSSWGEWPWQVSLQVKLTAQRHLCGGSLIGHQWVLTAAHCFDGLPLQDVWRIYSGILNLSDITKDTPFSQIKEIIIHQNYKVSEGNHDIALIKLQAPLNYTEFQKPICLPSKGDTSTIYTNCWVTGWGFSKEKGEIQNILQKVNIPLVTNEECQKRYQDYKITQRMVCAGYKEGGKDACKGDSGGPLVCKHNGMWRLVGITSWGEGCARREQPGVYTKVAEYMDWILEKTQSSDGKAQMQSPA
T1 sequence (P03952 20-390 partner limits assumed): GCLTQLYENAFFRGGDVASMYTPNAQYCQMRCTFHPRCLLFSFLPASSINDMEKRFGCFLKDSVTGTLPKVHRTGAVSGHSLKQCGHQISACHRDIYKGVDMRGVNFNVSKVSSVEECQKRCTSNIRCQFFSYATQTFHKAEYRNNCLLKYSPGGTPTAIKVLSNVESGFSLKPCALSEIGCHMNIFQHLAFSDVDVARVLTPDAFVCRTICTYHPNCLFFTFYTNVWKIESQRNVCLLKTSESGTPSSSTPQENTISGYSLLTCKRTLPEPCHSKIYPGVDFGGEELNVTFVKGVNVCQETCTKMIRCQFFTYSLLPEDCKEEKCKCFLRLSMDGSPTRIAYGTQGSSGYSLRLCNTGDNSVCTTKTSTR

## COC(=O)Nc1ccc2c(c1)NC(=O)C(C)(C)CCC[C@H](c1ccc(-c3cc(F)ccc3-n3cc(C(F)(F)F)cn3)c[n+]1[O-])c1nc-2c(C(=O)OC)[nH]1 [Example 6, (R,Z)-5-(5-fluoro-2-(4-(trifluoromethyl)-1H-pyrazol-1-yl)phenyl)-2-(1^5-(methoxycarbonyl)-2^4-((methoxycarbonyl)amino)-5,5-dimethyl-4-oxo-1^1H-3-aza-1(4,2)-imidazola-2(1,2)-benzenacyclononaphane-9-yl)pyridine 1-oxide]
[1]
  IC50: 122 nM
[2]
  MRT: 8.9 h
[3]
  IC50: 0.81 nM

## CCOC(=O)c1[nH]c2nc1-c1ccc(NC(=O)OC)cc1NC(=O)C(C)(C)CCC[C@@H]2c1ccc(-c2cc(Cl)cnc2OC(F)F)c[n+]1[O-] [Example 4, (R,Z)-5′-chloro-2′-(difluoromethoxy)-6-(1^5-(ethoxycarbonyl)-2^4-((methoxycarbonyl)amino)-5,5-dimethyl-4-oxo-1^1H-3-aza-1(4,2)-imidazola-2(1,2)-benzenacyclononaphane-9-yl)-[3,3′-bipyridine] 1-oxide]
[1]
  IC50: 104 nM
[2]
  MRT: 9.9 h
[3]
  IC50: 1.3 nM

## CCOC(=O)c1[nH]c2nc1-c1ccc(NC(=O)OC)cc1NC(=O)C(C)(C)CCC[C@@H]2c1ccc(-c2cc(F)ccc2OC(F)F)c[n+]1[O-] [Example 3, (R,Z)-5-(2-(difluoromethoxy)-5-fluorophenyl)-2-(1^5-(ethoxycarbonyl)-2^4-((methoxycarbonyl)amino)-5,5-dimethyl-4-oxo-1^1H-3-aza-1(4,2)-imidazola-2(1,2)-benzenacyclononaphane-9-yl)pyridine 1-oxide]
[1]
  IC50: 1.4 nM
[2]
  MRT: 6.1 h
[3]
  IC50: 0.26 nM

## CCOC(=O)c1[nH]c2nc1-c1ccc(NC(=O)OC)cc1NC(=O)C(C)(C)CCC[C@@H]2c1ccc(-c2cc(Cl)ccc2-n2cc(C(F)(F)F)cn2)c[n+]1[O-] [Example 2, (R,Z)-5-(5-chloro-2-(4-(trifluoromethyl)-1H-pyrazol-1-yl)phenyl)-2-(1^5-(ethoxycarbonyl)-2^4-((methoxycarbonyl)amino)-5,5-dimethyl-4-oxo-1^1H-3-aza-1(4,2)-imidazola-2(1,2)-benzenacyclononaphane-9-yl)pyridine 1-oxide]
[1]
  IC50: 11 nM
[2]
  MRT: 15 h
[3]
  IC50: 0.97 nM

## CCOC(=O)c1[nH]c2nc1-c1ccc(NC(=O)OC)cc1NC(=O)C(C)(C)CCC[C@@H]2c1ccc(-c2cc(F)ccc2-n2cc(C(F)(F)F)cn2)c[n+]1[O-] [Example 1, (R,Z)-2-(1^5-(ethoxycarbonyl)-2^4-((methoxycarbonyl)amino)-5,5-dimethyl-4-oxo-1^1H-3-aza-1(4,2)-imidazola-2(1,2)-benzenacyclononaphane-9-yl)-5-(5-fluoro-2-(4-(trifluoromethyl)-1H-pyrazol-1-yl)phenyl)pyridine 1-oxide]
[1]
  IC50: 119 nM
[2]
  MRT: 12 h
[3]
  IC50: 0.88 nM

## CCOC(=O)c1[nH]c2nc1-c1ccc(NC(=O)OC)cc1NC(=O)C(C)(C)CCC[C@@H]2c1ccc(-c2cccc(Cl)c2F)c[n+]1[O-] [Example 5, (R,Z)-5-(3-chloro-2-fluorophenyl)-2-(1^5-(ethoxycarbonyl)-2^4-((methoxycarbonyl)amino)-5,5-dimethyl-4-oxo-1^1H-3-aza-1(4,2)-imidazola-2(1,2)-benzenacyclononaphane-9-yl)pyridine 1-oxide]
[1]
  IC50: 0.49 nM
[2]
  MRT: 7.2 h
[3]
  IC50: 0.19 nM
